Test results taken from paper PMC10515483, “Structure–Reactivity Studies of 2-Sulfonylpyrimidines Allow Selective Protein Arylation” (Bioconjugate Chemistry, 2023).
“Also recorded” adds a separate entry of the source.

Tests used:
[1] = GSH arylation rate constants (NMR; UV-vis for fast warheads); type: physicochemical; conditions: for k: Table S8, rate constants obtained at pH = 7; for k/kref / ΔΔG≠1exp: relative to 4q; for ΔΔG≠1exp: via -RTln(k/kref)
Source text: We employed nuclear magnetic resonance (NMR) and UV–vis to quantify the reactivity of our 2-SP derivatives and other representative electrophiles (Figure 2) against cysteine. NMR allowed straightforward determination of reaction rate constants through dual monitoring of the consumption of the warhead and formation of the product by integration of their respective NMR signals (Figures S1–S3). It simultaneously provided a direct readout on reaction specificity and hydrolytic stability of the warhead. All measurements were carried out in KPi buffer in the presence of 5% d^6-dmso, which is generally well-tolerated by a wide range of proteins in in vitro studies. N-acetylcysteine methylester (NACME) and L-glutathione (GSH) are useful model cysteine nucleophiles for in vitro studies of electrophilic agents.[32] Mixing reference electrophile 2-methylsulfonylpyrimidine (4q) with NACME or GSH in a 1:10 ratio (pseudo-first-order conditions) allowed extraction of accurate and reproducible second order rate constants (k).
Figure 3 In vitro determination of electrophilic reactivity of compounds. (A) NMR assay setup for warhead/GSH reaction rate constant determination and chemoselectivity monitoring, over a 6 h time scale. Purple bead = GSH. Hydrolytic stability was determined in the same way over 36 h. d^4-Trimethylsilylpropanoate (TMSP, blue box) was used as an internal standard for monitoring the warhead solubility. Second-order reaction rate constants (k) were obtained from their pseudo-first-order counterparts (k′), by time-dependent normalized integration of the disappearing warhead signals. […] (B) Experimental second-order rate constants (y axis, log10 scale) for the reaction of representative 2-SP derivatives (left, 11 out of ca. 40 examples) and previously reported heteroarylsulfones (right) with GSH in a KPi buffer, pH 7.0, 20 °C. All rate constants were calculated as an average of at least two independent measurements. Numerical values and standard deviations at both pH 7.0 and 6.5, along with a full list of 2-SPs and other electrophile types tested, are presented in Tables S2–S6 and Figure S4. The horizontal dashed line marks the reaction rate of 2-methylsulfonylpyrimidine at pH 7.0, as a reference when comparing with other reagents (see main text).
To establish an accurate structure–reactivity profile of 2-SP reagents, we systematically determined their reaction rate constants for the arylation of GSH by NMR, at pH 7.0 and 6.5. This was a prerequisite to (i) quantify the influence of substitution on reaction rates; (ii) accurately assess the tunability and chemoselectivity of 2-SPs for cysteine arylation; (iii) determine the influence of pH on the reaction rates to further inform on the precise reaction mechanism; and (iv) benchmark the overall performance of 2-SPs with those of previously reported fast reacting heteroarylsulfones and other common cysteine reactive warheads (Figure 2C,D).

[2] = Hydrolytic stability in KPi buffer without thiol (NMR); type: physicochemical; conditions: for % degradation: over 12 hours, 50 mM KPi, footnote a: crashing out of solution, no degradation product
Protocol: NMR studies: rate constant determination and hydrolytic stability. 850 µL of 50 mM Kpi buffer solution (pH 8.2 or 7), 20 µL of the appropriate pyrimidine stock s olution (100 mM in DMSO -d6), 20 µL of TMSP stock solution (22.2 mM in DI water), 30 µL DMSO -d6, and 80 µL of GSH stock solution (0.25 M in DI water, reactivity only) were successively added/mixed at room temperature, final pH 7.0 or 6.5 (Table S1). 600 µL of this freshly prepared solution was poured into an NMR tube and immediately […]
transferred to the NMR instrument for acquisition. 1H spectra (16 scans) were recorded every 10 minutes under water suppression conditions. Following acquisition, spectra were analysed using […]
order reaction rate constants (k’).

p53-Y220C = molecular target: T1, p53-Y220C (Homo sapiens, UniProt P04637, M133L/N239Y/N268D/V203A/Y220C); assay: Differential scanning fluorimetry (DSF); type: binding; conditions: 100 μM compound; 8 µM p53-Y220C; read-out: Protein thermal stability ΔTm
T1 construct: (residues 94-312); 6xHis/lipoyl domain/TEV protease cleavage site (N, cleaved yes); made in house; host or cells: E. coli C41
Source text: We also probed the general effect of 2-SPs on protein stability by using differential scanning fluorimetry (DSF). […] Mutants of the 25 kDa DNA-binding domain of the tumor suppressor p53 are notorious for their reduced thermal stability and denaturation/aggregation propensity.[37] The 56 kDa armadillo domain (ARD) of β-catenin mediates canonical Wnt signaling and plays a central role in embryogenesis and tissue homeostasis.[38] FGE (37 kDa) is the only known activator of human sulfatases, and its stability is susceptible to modification of its cysteines.[39] […]
described.7 Briefly, the N-terminal fusion protein (6xHis/lipoyl domain/TEV protease cleavage site) was overexpressed using E. coli C41 cells in 2xTY medium at 20°C for 16 h and purified using standard Ni-affinity chromatography protocols. […]
was further purified using a Heparin column. Finally, gel filtration chromatography was performed using a Superdex 75 16/60 preparative gel filtration column (GE Healthcare) in a 25 mM KPi (pH 7.2), 150 […]
mM NaCl, and 1 mM TCEP buffer. […]
gel electrophoresis and ESI-MS. […]

[3] = pH 6.5, by NMR, KPi buffer, 5% DMSO-d6
[4] = pH 7.0, by NMR, KPi buffer, 5% DMSO-d6
[5] = pH 7.0, ratio to rate constant of 4q, acceleration (+) or deceleration (-)
[6] = pH 6.5, measured by UV titrations
[7] = pH 7.0, measured by UV titrations
[8] = pH 7.0, ratio to 4q, from value measured by UV titrations (footnote a)

Structure (SMILES)	% degradation ([2]; pH 7.0) [%]	% degradation ([2]; pH 8.2) [%]	ΔTm at 100 µM (p53-Y220C) [°C]	melting point [°C]	hydrolysis in aqueous buffer (in words) ([2]; buffer in the absence of GSH)	k [1] [M⁻¹ s⁻¹]	rate constant (k) for the reaction with GSH [1, 3]	rate constant (k) for the reaction with GSH [1, 4] [M⁻¹ s⁻¹]	k change (vs ref) [1, 5]	k/kref [1]	ΔΔG≠1exp [1] [kcal/mol]	rate constant (k) for the reaction with GSH [1, 6] [M⁻¹ s⁻¹]	rate constant (k) for the reaction with GSH [1, 7] [M⁻¹ s⁻¹]	k change (vs ref) [1, 8]	times faster at pH 7.0 vs 6.5 ([1]; GSH)	times slower with GSH than with NACME ([1]; pH 7.0)	second order rate constant k with GSH ([1]; pH 7.0, KPi buffer)
CS(=O)(=O)c1ncc(Br)cn1 [4t]	< 5	< 5	0.4	–	–	0.29	0.056 ± 0.034 M⁻¹ s⁻¹	0.29 ± 0.25	+12 fold	12	-1.46	–	–	–	–	–	–
CS(=O)(=O)c1ncc(-c2ccccc2)cn1 [4p]	78	78	0.2	180	–	–	0.01 ± 0.005 M⁻¹ s⁻¹	0.012 ± 0.0078	-2 fold	–	–	–	–	–	–	–	–
CS(=O)(=O)c1nccc(C(N)=O)n1 [4j]	–	–	-0.2 ± 0.1	–	–	–	0.095 ± 0.015 M⁻¹ s⁻¹	0.3 ± 0.0025	+12 fold	–	–	–	–	–	–	–	–
CS(=O)(=O)c1ncc(Br)c(C(=O)O)n1 [4i]	–	–	0.8	–	–	–	0.075 ± 0.035 M⁻¹ s⁻¹	0.3 ± 0.013	+12 fold	–	–	0.15 ± 0.09	0.64 ± 0.009	+26 fold	–	–	–
COC(=O)c1ccnc(S(C)(=O)=O)n1 [4k]	77	100	0.4	80	–	2.8	0.26 ± 0.045 M⁻¹ s⁻¹	–	–	112	-2.87	0.37 ± 0.063	2.8 ± 1.1	+112 fold	–	–	–
CS(=O)(=O)c1ncc(I)cn1 [4u]	< 5	14	0.4	56	–	–	0.025 ± 0.01 M⁻¹ s⁻¹	0.66 ± 0.01	+26 fold	–	–	–	–	–	–	–	–
Cc1cc(C)nc(S(C)(=O)=O)n1 [4a]	< 5	–	0	–	–	0.0010	0.00038 ± 8e-05 M⁻¹ s⁻¹	0.001	-25 fold	0.040	1.91	–	–	–	–	–	–
COc1ccnc(S(C)(=O)=O)n1 [4b]	–	–	0.2	60	–	0.0045	0.0013 ± 0.0008 M⁻¹ s⁻¹	0.0045 ± 0.0005	-6 fold	0.18	1.03	–	–	–	–	–	–
COc1cc(OC)nc(S(C)(=O)=O)n1 [4f, 4,6-dimethoxy-2-methylsulfonylpyrimidine]	–	–	-0.2 ± 0.1	–	–	0.010	0.003 ± 0.0005 M⁻¹ s⁻¹	0.01	-3 fold	0.40	0.55	–	–	–	–	–	–
CS(=O)(=O)c1ncccn1 [4q, 2-methylsulfonylpyrimidine]	< 5	< 5	-0.2 ± 0.1	–	–	0.0250	0.004 ± 0.0016 M⁻¹ s⁻¹	0.025 ± 0.014	–	1	0	–	–	–	approximately 5 times	approximately 3 times	≈ 1.6 × 10^–2 M^–1 s^–1; also recorded: ≈ 1.2 × 10^–2 M^–1 s^–1
Cc1ccnc(S(C)(=O)=O)n1 [4c]	–	10	-0.2 ± 0.1	–	–	0.0043	0.0015 ± 0.0005 M⁻¹ s⁻¹	0.0043 ± 0.0008	-6 fold	0.17	1.05	–	–	–	–	–	–
CS(=O)(=O)c1nccc(-c2ccccc2)n1 [4e]	< 5	50	0.2	–	–	–	0.002 ± 0.0005 M⁻¹ s⁻¹	0.005	-5 fold	–	–	–	–	–	–	–	–
CS(=O)(=O)c1ncc(C(F)(F)F)cn1 [4x]	97	100	0.8	–	partial, slow hydrolysis	1900	–	–	+76,000 fold	76000	-6.69	–	–	–	–	–	–

Now from value to compound, other results behind:

% degradation ([2]; pH 7.0) [%]	% degradation ([2]; pH 8.2) [%]	ΔTm at 100 µM (p53-Y220C) [°C]	melting point [°C]	hydrolysis in aqueous buffer (in words) ([2]; buffer in the absence of GSH)	Structure (SMILES)	k [1] [M⁻¹ s⁻¹]	rate constant (k) for the reaction with GSH [1, 3]	rate constant (k) for the reaction with GSH [1, 4] [M⁻¹ s⁻¹]	k change (vs ref) [1, 5]	k/kref [1]	ΔΔG≠1exp [1] [kcal/mol]	rate constant (k) for the reaction with GSH [1, 6] [M⁻¹ s⁻¹]	rate constant (k) for the reaction with GSH [1, 7] [M⁻¹ s⁻¹]	k change (vs ref) [1, 8]	times faster at pH 7.0 vs 6.5 ([1]; GSH)	times slower with GSH than with NACME ([1]; pH 7.0)	second order rate constant k with GSH ([1]; pH 7.0, KPi buffer)
< 5	–	0.2	58	–	CC(C)(C)S(=O)(=O)c1ncccn1 [5a]	–	Ca. 0.03 mM-1.s-1	0.00018 ± 3e-05	-139 fold	0.0072	2.87	–	–	–	–	–	–
–	–	-0.2 ± 0.1	200 to 201	–	Nc1ccc(S(=O)(=O)c2ncccn2)cc1 [5b]	0.0050	0.002 M⁻¹ s⁻¹	0.005	-5 fold	0.20	0.956	–	–	–	–	–	–
–	< 5	0.2	–	–	O=S(=O)(NCc1ccccc1)c1ncccn1 [5g]	–	0.00015 ± 5e-05 M⁻¹ s⁻¹	0.0004 ± 0.0001	-63 fold	–	–	–	–	–	–	–	–
12	10	0	–	–	O=S(=O)(c1ccccc1)c1ncccn1 [5d]	0.035	0.01 ± 0.005 M⁻¹ s⁻¹	0.035 ± 0.015	≈	1.4	-0.198	–	–	–	–	–	–
100	100	0.4	–	–	O=S(=O)(Oc1c(F)c(F)c(F)c(F)c1F)c1ncccn1 [5h]	24	–	–	+960 fold	960	-4.06	5.4 ± 0.72	24 ± 1.1	–	–	–	–
–	–	0	–	–	CCCCS(=O)(=O)c1ncccn1 [5c]	–	0.0028 ± 0.0003 M⁻¹ s⁻¹	0.01	-3 fold	–	–	–	–	–	–	–	–
